From US20130165368A1, “ANTIMICROBIAL COMPOUNDS” (priority 2010, published 2013)
Values after ≈ are worked out from the molar mass of the structure shown. Read-outs that look alike come from different tables or passages of the source.

Experiments:
Assay type in all cases: cell-based
[1] = test system: Pseudomonas aeruginosa; test: MIC agar dilution, micro-organism 7 (10662); settings: Pseudomonas aeruginosa 10662; 48 hrs; read-out: MIC
Description: (§1) Throughout the period of testing the microbial strains were subcultured and incubated for 18-20 hours at 37° C. on a weekly basis. Horse blood agar plates were used to sustain the micro-organisms both prior to and throughout testing. The alkoxylated alkanols listed in Table II below were obtained (these are obtainable from Sigma-Aldrich Company Ltd, Dorset, England), each having a GC purity of at least 97%.
(§2) Molar equivalent concentrations were used to allow comparison between compounds of differing molecular mass. Due to weighing difficulties, any compound in solid form was melted in a water bath prior to dilution. To make ten-times strength concentrations, which takes into account agar dilution, 0.0352 mmol of each compound was weighed into plastic universal bottles and 4 mL of sterile distilled water (SDW) was added. To produce a homogenous emulsion the universals were vortexed; once achieved the emulsions were serial diluted by adding 2 mL to 2 mL of SDW.
(§3) Myristyl alcohol and lauryl alcohol were re-weighed and dissolved in 25 μL of the polar solvent 1-methyl-2-pyrrolidone (M6762; Sigma-Aldrich) in sterile glass universals due to an inability to achieve an even suspension. To maintain an even emulsion in the presence of SDW 37.5 μL of the non-ionic detergent Tween 20 (P1379, Sigma-Aldrich) was also added. 3.9375 mL of SDW was added to these, to create a 4 mL volume; they were vortexed and diluted as before.
(§4) For every 100 mL of Isosensitest agar (IST) (CM0471; Oxoid, Basingstoke, England), 3.1 g of the IST powder was added to 100 mL SDW (as per manufacturer's instructions) and sterilised for 15 minutes at 121° C. Once sterilised, the molten agar was cooled to 50° C. in a water-bath. Subsequently 4.8 g of CCEY powder (BC2160; Bioconnections, Wetherby, England), also known as Brazier's medium, was added to 100 mL SDW for every 100 mL of agar needed. This was then sterilised for 15 minutes at 121° C. Once sterilised the molten agar was cooled to 50° C. in a water-bath and 4 mL of egg-yolk emulsion (S2073; TCS Biosciences Ltd, Buckingham, United Kingdom) and 1 mL of lysed defibrinated horse blood (HB035; TCS Biosciences Ltd, Buckingham, United Kingdom) were also added for every 100 mL needed. Horse blood lysis is achieved by dilution to half concentration with SDW; when fully lysed the mixture will turn dark red in colour.
(§5) 18 mL agar was added to each universal and then poured into sterile Petri dishes. This step creates a 1/10 dilution resulting in agar plates of the required strength. Control plates for each set of strains were created by adding 18 mL of agar to 2 mL of SDW.
(§6) Suspensions of each bacterial species were prepared with a density equal to that of a 0.5 McFarland standard using a densitometer. All suspensions were made using sterile distilled water and fresh 18-20 hour cultures. As a 0.5 McFarland standard contains 1.5×10^8 CFU/mL and the multipoint inoculators applies 1 μL spots of liquid, each bacterial suspension was diluted 1/15 (20 μL suspension to 280 μL sterile distilled water).
(§7) Bacterial suspensions were prepared from fresh 18-24 hour cultures as previously described. 1 μL of each strain was inoculated onto all 100 agar plates containing a different chemical concentration and the 2 control plates. This was done using a multipoint inoculator which inoculates 20 strains per plate. All plates were incubated for 22 hours at 37° C. in aerobic conditions.
(§8) Each plate was examined for bacterial growth after 22 and 48 hours, with each being incubated in between examinations. A positive result was recorded as growth of ≧10 colonies. A negative result was recorded as growth of <10 colonies as this is equivalent to 99.9% inhibition. The lowest concentration of chemical that inhibited growth was recorded as the MIC. The results are recorded in Table IV below, where the numbers are quoted in mmol/L.
(§9) Further experiments have also been conducted to determine the MIC of a number of other compositions as follows. […]

[2] = test system: Burkholderia cepacia; test: MIC agar dilution, micro-organism 9 (1222); settings: Burkholderia cepacia 1222; 48 hrs; read-out: MIC
Description: as §1, §2, §3, §4, §5, §6, §7, §8, §9

[3] = test system: Staphylococcus aureus (MRSA); test: MIC agar dilution, micro-organism 12 (11939); settings: Staphylococcus aureus, MRSA, Staphylococcus aureus (MRSA) 11939, read-out: MIC
Description: as §1, §2, §3, §4, §5, §6, §7
as §8, with “mmol/L. […]” for “mmol/L.”

[4] = test system: Serratia marcescens; test: MIC agar dilution, micro-organism 5 (10211); settings: Serratia marcescens 10211; 48 hrs; read-out: MIC
Description: as §1, §2, §3, §4, §5, §6, §7, §8, §9

[5] = test system: Candida glabrata; test: MIC agar dilution, micro-organism 20 (3943); settings: Nakaseomyces glabratus, Candida glabrata 3943, read-out: MIC
Description: as §1, §2, §3, §4, §5, §6, §7
as §8, with “mmol/L. […]” for “mmol/L.”

[6] = test system: Enterobacter cloacae; test: MIC agar dilution, micro-organism 4 (11936); settings: Enterobacter cloacae 11936; 48 hrs; read-out: MIC
Description: as §1, §2, §3, §4, §5, §6, §7, §8, §9

[7] = test system: Steptococcus pyogenes; test: MIC agar dilution, micro-organism 11 (8306); settings: Steptococcus pyogenes 8306, read-out: MIC
Description: as §1, §2, §3, §4, §5, §6, §7
as §8, with “mmol/L. […]” for “mmol/L.”

[8] = test system: Staphylococcus aureus; test: MIC agar dilution, micro-organism 13 (6571); settings: Staphylococcus aureus, Staphylococcus aureus 6571, read-out: MIC
Description: as §1, §2, §3, §4, §5, §6, §7
as §8, with “mmol/L. […]” for “mmol/L.”

[9] = test system: Staphylococcus epidermidis; test: MIC agar dilution, micro-organism 14 (11047); settings: Staphylococcus epidermidis 11047, read-out: MIC
Description: as §1, §2, §3, §4, §5, §6, §7
as §8, with “mmol/L. […]” for “mmol/L.”

[10] = test system: Enterococcus faecium; test: MIC agar dilution, micro-organism 16 (7171); settings: Enterococcus faecium 7171, read-out: MIC
Description: as §1, §2, §3, §4, §5, §6, §7
as §8, with “mmol/L. […]” for “mmol/L.”

[11] = test system: Salmonella typhimurium; test: MIC agar dilution, micro-organism 6 (74); settings: Salmonella enterica; Salmonella typhimurium 74; 48 hrs; read-out: MIC
Description: as §1, §2, §3, §4, §5, §6, §7, §8, §9

[12] = test system: Enterococcus faecalis; test: MIC agar dilution, micro-organism 17 (775); settings: Enterococcus faecalis 775, read-out: MIC
Description: as §1, §2, §3, §4, §5, §6, §7
as §8, with “mmol/L. […]” for “mmol/L.”

[13] = test system: Klebsiella pneumoniae; test: MIC agar dilution, micro-organism 2 (9528); settings: Klebsiella pneumoniae 9528; 48 hrs; read-out: MIC
Description: as §1, §2, §3, §4, §5, §6, §7, §8, §9

[14] = test system: Providencia rettgeri; test: MIC agar dilution, micro-organism 3 (7475); settings: Providencia rettgeri 7475, read-out: MIC
Description: as §1, §2, §3, §4, §5, §6, §7
as §8, with “mmol/L. […]” for “mmol/L.”

[15] = test system: Candida albicans; test: MIC agar dilution, micro-organism 19 (90028); settings: Candida albicans 90028, read-out: MIC
Description: as §1, §2, §3, §4, §5, §6, §7
as §8, with “mmol/L. […]” for “mmol/L.”

[16] = test system: Acinetobacter baumannii; test: MIC agar dilution, micro-organism 10 (19606); settings: Acinetobacter baumannii 19606; 48 hrs; read-out: MIC
Description: as §1, §2, §3, §4, §5, §6, §7, §8, §9

[17] = test system: Listeria monocytogenes; test: MIC agar dilution, micro-organism 15 (11994); settings: Listeria monocytogenes 11994, read-out: MIC
Description: as §1, §2, §3, §4, §5, §6, §7
as §8, with “mmol/L. […]” for “mmol/L.”

[18] = test system: Yersinia enterocolitica; test: MIC agar dilution, micro-organism 8 (11176); settings: Yersinia enterocolitica 11176; 48 hrs; read-out: MIC
Description: as §1, §2, §3, §4, §5, §6, §7, §8, §9

[19] = test system: Bacillus subtilis; test: MIC agar dilution, micro-organism 18 (9372); settings: Bacillus subtilis 9372, read-out: MIC
Description: as §1, §2, §3, §4, §5, §6, §7
as §8, with “mmol/L. […]” for “mmol/L.”

[20] = test system: Escherichia coli; test: MIC agar dilution, micro-organism 1 (10418); settings: Escherichia coli 10418, read-out: MIC
Description: as §1, §2, §3, §4, §5, §6, §7
as §8, with “mmol/L. […]” for “mmol/L.”

[21] = test system: Gram negative bacteria, Gram positive bacteria and pathogenic yeasts; test: MIC agar dilution, summary statements over the micro-organisms tested (Tables I, IX); settings: over the micro-organisms tested or some of them; read-out: MIC
Source text: For a better understanding, the present invention will now be more particularly described, by way of non-limiting example only, as follows. The micro-organisms shown in Table I overleaf were acquired from the National Collection of Type Cultures (NCTC), Colindale, United Kingdom; the American Type Culture Collection (ATCC), Manassas, United States and the National Collection of Pathogenic Fungi (NCPF), Colindale, United Kingdom. They include Gram negative bacteria, Gram positive bacteria and pathogenic yeasts.
as §1, §2, §3, §4, §5, §6
as §7, with “conditions. […]” for “conditions.”

| Compound | MIC ([3]; 48 h, 48 hrs) | MIC ([5]; 48 h, 48 hrs) | MIC ([7]; 48 h, 48 hrs) | MIC ([8]; 48 h, 48 hrs) | MIC ([9]; 48 hrs) | MIC ([10]; 48 hrs) | MIC ([12]; 48 hrs) | MIC ([14]; 48 hrs) | MIC ([15]; 48 hrs) | MIC ([17]; 48 hrs) | MIC ([19]; 48 hrs) | MIC ([20]; 48 hrs) | MIC ([3]; 22 h, 22 hrs) | MIC ([5]; 22 h, 22 hrs) | MIC ([7]; 22 h, 22 hrs) | MIC ([8]; 22 h, 22 hrs) | MIC ([9]; 22 hrs) | MIC ([10]; 22 hrs) | MIC ([12]; 22 hrs) | MIC ([14]; 22 hrs) | also measured |
| --- | --- | --- | --- | --- | --- | --- | --- | --- | --- | --- | --- | --- | --- | --- | --- | --- | --- | --- | --- | --- | --- |
| CCCCCCCCCCCCOCC(C)O (racemic) [PG1, 1-methyl-3-oxapentadecanol] | 880 µM (≈ 215 µg/mL) | > 880 µM | > 880 µM | > 880 µM | > 880 µM | > 880 µM | > 880 µM | 880 µM (≈ 215 µg/mL) | > 880 µM | > 880 µM | > 880 µM | > 880 µM |  |  |  |  |  |  |  |  | MIC [1]: > 880 µM; MIC [2]: > 880 µM; MIC [4]: > 880 µM; MIC [6]: > 880 µM; MIC [11]: > 880 µM; MIC [13]: > 880 µM; MIC [16]: > 880 µM; MIC [18]: > 880 µM |
| CCCCCCCCCCOCCO [D1, Ethylene Glycol Monodecyl Ether, reference compound] | > 880 µM | > 880 µM | > 880 µM | > 880 µM | > 880 µM | > 880 µM | > 880 µM | > 880 µM | > 880 µM | > 880 µM | > 880 µM | > 880 µM | > 880 µM | > 880 µM | > 880 µM | > 880 µM | > 880 µM | > 880 µM | > 880 µM | > 880 µM | MIC ([15]; 22 hrs): > 880 µM; MIC [21]: > 880 µM; MIC ([17]; 22 hrs): > 880 µM; MIC ([19]; 22 hrs): > 880 µM; MIC ([20]; 22 hrs): > 880 µM |
| CCCCCCCCCCCCCCOCCOCCOCCOCCO [M4, Tetraethylene Glycol Monotetradecyl Ether] | 110 µM (≈ 43 µg/mL) | > 880 µM | 27.5 µM (≈ 10.7 µg/mL) | 55 µM (≈ 21.5 µg/mL) | 110 µM (≈ 43 µg/mL) | > 880 µM | 220 µM (≈ 85.9 µg/mL) | > 880 µM | > 880 µM | > 880 µM | 220 µM (≈ 85.9 µg/mL) | > 880 µM | 110 µM (≈ 43 µg/mL) | > 880 µM | 27.5 µM (≈ 10.7 µg/mL) | 55 µM (≈ 21.5 µg/mL) | 55 µM (≈ 21.5 µg/mL) | > 880 µM | 220 µM (≈ 85.9 µg/mL) | > 880 µM | MIC ([15]; 22 hrs): > 880 µM; MIC [21]: < 220 µM; MIC ([17]; 22 hrs): 440 µM (≈ 172 µg/mL); MIC ([19]; 22 hrs): 220 µM (≈ 85.9 µg/mL); MIC ([20]; 22 hrs): > 880 µM |
